Calls of active or inactive are those of the source.
Experiments:
Lipopolysaccharide (LPS) = experiment: Displacement of BODIPY-TR-cadaverin from Escherichia coli O111:B4 Lipopolysaccharide assessed as increase in binding factor at 10 to 40 uM preincubated for 15 mins followed by BODIPY-TR-cadaverin addition and measured after 15 mins by fluorescence based analysis; details: dose 10-40 µM, time 30.0 min
Escherichia coli [1] = experiment: Antibacterial activity against Escherichia coli ATCC CRM-11229 assessed as inhibition of bacterial growth at 25 to 100 uM incubated overnight by spotting assay; format: functional, organism-based; details: dose 25-100 µM
Escherichia coli [2] = experiment: Antibacterial activity against Escherichia coli ATCC CRM-11229 assessed as inhibition of bacterial growth incubated for 24 hrs by CLSI protocol based microdilution method; format: functional
Klebsiella pneumoniae [3] = experiment: Bactericidal activity against Klebsiella pneumoniae ATCC BAA-1705 assessed as reduction in bacterial growth incubated for 24 hrs by Mueller Hinton Agar based plate analysis; format: functional
[4] = Cytotoxicity against mouse RAW264.7 cells assessed as cell viability at 12.5 uM incubated for 24 hrs by MTT assay relative to control; format: toxicity, cell-based; details: read-out: Activity
[5] = Cytotoxicity against human MCF7 cells assessed as cell viability at 12.5 uM incubated for 24 hrs by MTT assay relative to control; format: toxicity, cell-based; details: read-out: Activity
U-937 = experiment: Immunomodulatory activity in human U-937 cells assessed as reduction in LPS-induced IL-6 expression level incubated for 24 hrs by radioimmunoprecipitation based dot-plot analysis; format: functional, cell-based; details: dose 5-10 µM
Pseudomonas aeruginosa [6] = experiment: Antibacterial activity against Pseudomonas aeruginosa assessed as inhibition of bacterial growth incubated for 0.5 to 8.5 hrs by microtiter plate reader analysis; format: functional, organism-based; details: dose 1.25-40 µM, time 0.5-8.5 hrs
Pseudomonas aeruginosa [7] = experiment: Antibacterial activity against Pseudomonas aeruginosa assessed as inhibition of bacterial growth at 1.25 to 40 uM by microtiter plate reader analysis; format: functional, organism-based; details: dose 1.25-40 µM, time 0.5-8.5 hrs, TDE = time-dependent effect
Escherichia coli [8] = experiment: Antibacterial activity against Escherichia coli assessed as inhibition of bacterial growth at 1.25 to 40 uM incubated for 8 hrs by microtiter plate reader analysis; format: functional, organism-based; details: dose 1.25-40 µM
Staphylococcus aureus [9] = experiment: Antibacterial activity against methicillin resistant Staphylococcus aureus assessed as inhibition of bacterial growth at 1.25 to 40 uM incubated for 8 hrs by microtiter plate reader analysis; format: functional, organism-based; details: dose 1.25-40 µM
Pseudomonas aeruginosa [10] = experiment: Induction of morphological changes in Pseudomonas aeruginosa assessed as cellular destruction at MIC concentration incubated for 6 hrs by AFM analysis; format: functional, organism-based
Pseudomonas aeruginosa [11] = experiment: Induction of morphological changes in Pseudomonas aeruginosa assessed as cellular destruction at MIC concentration incubated for 6 hrs by SEM analysis; format: functional, organism-based
Staphylococcus aureus [12] = experiment: Induction of morphological changes in methicillin resistant Staphylococcus aureus assessed as decrease in legible cells at MIC concentration incubated for 6 hrs by AFM analysis; format: functional, organism-based
Escherichia coli [13] = experiment: Induction of morphological changes in Escherichia coli at MIC concentration incubated for 60 mins by SEM analysis; format: functional, organism-based
Escherichia coli [14] = experiment: Induction of morphological changes in Escherichia coli assessed as cell blebbing at MIC concentration incubated for 60 mins by SEM analysis; format: functional, organism-based
Cell membrane [15] = experiment: Induction of cytoplasmic membrane depolarization in Escherichia coli assessed as increase in fluorescence intensity at 0.5 to 1 times of MIC by DiSC3-5 dye based fluorescence method; format: subcellular
Cell membrane [16] = experiment: Induction of cytoplasmic membrane depolarization in methicillin-resistant Staphylococcus aureus assessed as increase in fluorescence intensity at 0.5 to 1 times of MIC by DiSC3-5 dye based fluorescence method; format: subcellular
Cell membrane [17] = experiment: Induction of cytoplasmic membrane depolarization in Pseudomonas aeruginosa assessed as increase in fluorescence intensity at 0.5 to 1 times of MIC by DiSC3-5 dye based fluorescence method; format: subcellular
Cell membrane [18] = experiment: Induction of outer membrane permeabilization in Escherichia coli at 0.5 to 1 times of MIC incubated for 5 to 20 mins by fluorescence based NPN uptake assay; format: subcellular; details: time 5-20 min
Cell membrane [19] = experiment: Induction of outer membrane permeabilization in methicillin-resistant Staphylococcus aureus at 0.5 to 1 times of MIC incubated for 5 to 20 mins by fluorescence based NPN uptake assay; format: subcellular; details: time 5-20 min
Escherichia coli [20] = experiment: Antibacterial activity against Escherichia coli assessed as induction of cellular damage at MIC concentration incubated for 30 mins by SYTO9/PI staining based fluorescence microscopic analysis; format: functional, organism-based
Klebsiella pneumoniae [21] = experiment: Antibacterial activity against Klebsiella pneumoniae assessed as induction of cellular damage at MIC concentration incubated for 30 mins by SYTO9/PI staining based fluorescence microscopic analysis; format: functional, organism-based
Staphylococcus aureus [22] = experiment: Antibiofilm activity against methicillin-resistant Staphylococcus aureus assessed as biofilm eradication at 1 times of MIC incubated for 24 hrs by CV staining based analysis relative to control; format: functional
Staphylococcus aureus [23] = experiment: Antibiofilm activity against methicillin-resistant Staphylococcus aureus in the presence of Na+; format: functional, organism-based
Klebsiella pneumoniae [24] = experiment: Antibiofilm activity against Klebsiella pneumoniae in the presence of Cl-; format: functional, organism-based
Pseudomonas aeruginosa [25] = experiment: Antibiofilm activity against Pseudomonas aeruginosa in the presence of Na+; format: functional, organism-based
Staphylococcus aureus [26] = experiment: Antibiofilm activity in methicillin-resistant Staphylococcus aureus assessed as biofilm disintegration at 0.5 to 1 times of MIC incubated for 24 hrs by Congo red dye based fluorescence analysis; format: functional, organism-based
Staphylococcus aureus [27] = experiment: Antibiofilm activity against methicillin-resistant Staphylococcus aureus assessed as increase in dead cell proportion at 0.5 times of MIC incubated overnight by SYTO9/PI staining based fluorescence analysis; format: functional, organism-based
[28] = Induction of wound healing in surgically-induced Albino Wistar rat wound model assessed as decrease in mean open wound percentage at 10 uM measured after 11 days by photographic analysis (reference value: 32.25%); format: functional; set-up: scale not given: the % may be the effect or the level left; details: time 11 day
Rattus norvegicus [29] = species on record: Rattus norvegicus; experiment: Induction of wound healing in surgically-induced Albino Wistar rat wound model assessed as dense epithelial-tissue layers at 10 uM measured after 11 days by H&E staining based analysis; format: functional; details: time 11.0 day
Rattus norvegicus [30] = species on record: Rattus norvegicus; experiment: Induction of wound healing in surgically-induced Albino Wistar rat wound model assessed as proper formation of hair follicles at 10 uM measured after 11 days by H&E staining based analysis; format: functional; details: time 11.0 day
Rattus norvegicus [31] = species on record: Rattus norvegicus; experiment: Induction of wound healing in surgically-induced Albino Wistar rat wound model inoculated with methicillin-resistant Staphylococcus aureus assessed as hair follicle formation at 10 uM measured after 11 days by H&E staining based analysis; format: functional; details: time 11.0 day
Rattus norvegicus [32] = species on record: Rattus norvegicus; experiment: Induction of wound healing in surgically-induced Albino Wistar rat wound model inoculated with methicillin-resistant Staphylococcus aureus assessed as sebaceous gland formation at 10 uM measured after 11 days by H&E staining based analysis; format: functional; details: time 11.0 day
Rattus norvegicus [33] = species on record: Rattus norvegicus; experiment: Induction of wound healing in surgically-induced Albino Wistar rat wound model assessed as densely packed epithelium containing keratinocytes at 10 uM measured after 11 days by H&E staining based analysis; format: functional; details: time 11.0 day
Pseudomonas aeruginosa [34] = experiment: Induction of resistance development in Pseudomonas aeruginosa assessed as change in MIC at 0.5 times of MIC incubated with compound for 12 hrs followed by replacement with fresh medium for 12 hrs and measured after 20 repeated cycles; format: functional, organism-based; details: time 240.0 hrs
Klebsiella pneumoniae [35] = experiment: Induction of resistance development in Klebsiella pneumoniae assessed as fold increase in MIC at 0.5 times of MIC incubated with compound for 12 hrs followed by replacement with fresh medium for 12 hrs and measured after 20 repeated cycles; format: functional; details: time 240 hrs

H-FLPIIKWVKKFFWRWR-OH
3.5 µM: MIC (Escherichia coli [2])
inactive: Activity (Staphylococcus aureus [27]) | Activity (Pseudomonas aeruginosa [34])
2: fold change (FC) (Klebsiella pneumoniae [35])
11 µM: MBC (Klebsiella pneumoniae [3])
5.6%: Activity [28]
77%: viability at 24 h, 12.5 µM [5]
<=87.6%: Activity (Staphylococcus aureus [22])
active: Activity (Lipopolysaccharide (LPS)) | Activity (Escherichia coli [1]) | Activity (U-937) Dose-Dependent Effect | Activity (Pseudomonas aeruginosa [6]) Dose-Dependent Effect | Activity (Pseudomonas aeruginosa [7]) Tde | Activity (Escherichia coli [8]) | Activity (Staphylococcus aureus [9]) | Activity (Pseudomonas aeruginosa [10]) | Activity (Pseudomonas aeruginosa [11]) | Activity (Staphylococcus aureus [12]) | Activity (Escherichia coli [13]) | Activity (Escherichia coli [14]) | Activity (Cell membrane [15]) | Activity (Cell membrane [16]) | Activity (Cell membrane [17]) | Activity (Cell membrane [18]) | Activity (Cell membrane [19]) | Activity (Escherichia coli [20]) | Activity (Klebsiella pneumoniae [21]) | Activity (Staphylococcus aureus [23]) | Activity (Klebsiella pneumoniae [24]) | Activity (Pseudomonas aeruginosa [25]) | Activity (Staphylococcus aureus [26]) | Activity (Rattus norvegicus [29]) | Activity (Rattus norvegicus [30]) | Activity (Rattus norvegicus [31]) | Activity (Rattus norvegicus [32]) | Activity (Rattus norvegicus [33])
> 90%: viability at 24 h, 12.5 µM [4]
